According to the supplement of paper PMC7023306:
± gives the uncertainty stated by the source.

Test: TIMS collision cross section in N2 (TIMS CCS N2); higher = larger gas-phase ion size
Conditions: drift gas: N2 (99.4% N2, 0.6% O2), calibration: Stow et al. 2017 values for Agilent ESI-L Low Concentration Tune Mix, ionization: negative ESI
Procedure: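 Authentic plant natural product standards (10-50 ppm in 80% methanol) were analysed by UHPLC (BEH C18, 60 °C) coupled to a Bruker timsTOF Pro in negative ESI with N2 drift gas. TIMS collision cross sections were computed from mobility peak apices after calibration with Agilent Tune Mix using Stow et al. reference values. Values are the average of triplicate runs on different days, reported per annotated ion species (deprotonated ion, adducts, dimer, oxidized ion).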

| Compound | TIMS collision cross section in N2 (ion species: [M-H]-) | also measured |
| --- | --- | --- |
| Cc1c(O)c(C)c2c(c1O)C(=O)C[C@@H](c1ccc(O)cc1)O2 [Farrerol] | 172.28 ± 0.21 Å² | TIMS collision cross section in N2 (ion species: [M-H+Na+HCO2H]-): 186.6 ± 0.36 Å² |
| O=c1c(O)c(-c2ccc(O)c(O)c2)oc2cc(O)ccc12 [Fisetin] | 162.38 ± 0.017 Å² | TIMS collision cross section in N2 (ion species: [M-3H]-): 157.48 ± 0.065 Å² |
| COc1ccc(-c2coc3cc(O)ccc3c2=O)cc1 [Formononetin] | 163.76 ± 0.32 Å² | TIMS collision cross section in N2 (ion species: [2M-H]-): 257.46 ± 0.31 Å² |
| O=c1c(-c2ccc(O)cc2)coc2cc(O)cc(O)c12 [Genistein] | 159.89 ± 0.26 Å² | TIMS collision cross section in N2 (ion species: [2M-H]-): 249.93 ± 0.16 Å² |
| O=c1c(-c2ccc(O)cc2)coc2cc(O[C@@H]3O[C@H](CO)[C@@H](O)[C@H](O)[C@H]3O)cc(O)c12 [Genistin] | 212.14 ± 0.076 Å² | TIMS collision cross section in N2 (ion species: [M-H+HCO2H]-): 220.37 ± 0.15 Å² |
| COc1cc2c(=O)c(-c3ccc(O)cc3)coc2cc1O [Glycitein] | 166.87 ± 0.13 Å² | TIMS collision cross section in N2 (ion species: [M-H+Na+HCO2H]-): 184.69 ± 0.23 Å² |
| CC1(C)[C@@H](O[C@H]2O[C@H](C(=O)O)[C@@H](O)[C@H](O)[C@H]2O[C@@H]2O[C@H](C(=O)O)[C@@H](O)[C@H](O)[C@H]2O)CC[C@]2(C)[C@H]3C(=O)C=C4[C@@H]5C[C@@](C)(C(=O)O)CC[C@]5(C)CC[C@@]4(C)[C@]3(C)CC[C@@H]12 [Glycyrrhizic acid] | 279.43 ± 0.38 Å² |  |
| CC1(C)CC[C@]2(C(=O)O)CC[C@]3(C)C(=CC[C@@H]4[C@@]5(C)CC[C@H](O)[C@@](C)(CO)[C@@H]5CC[C@]43C)[C@@H]2C1 [Hederagenin] | 222.47 ± 0.52 Å² | TIMS collision cross section in N2 (ion species: [M-H+Na+HCO2H]-): 234.04 ± 0.57 Å² |
| CCCCCCCCCCCCCCCCC(=O)O [Heptadecanoic acid] | 174.45 ± 0.021 Å² | TIMS collision cross section in N2 (ion species: [2M-H]-): 259.04 ± 0.54 Å² |
| COc1ccc([C@@H]2CC(=O)c3c(O)cc(O)cc3O2)cc1O [Hesperetin] | 172.79 ± 0.23 Å² | TIMS collision cross section in N2 (ion species: [2M-H]-): 219.76 ± 0.28 Å² |
| COc1c(O)cc2oc(-c3ccc(O)cc3)cc(=O)c2c1O [Hispidulin] | 165.52 ± 0.17 Å² |  |
| COc1cc([C@@H]2CC(=O)c3c(O)cc(O)cc3O2)ccc1O [Homoeriodictyol] | 168.62 ± 0.075 Å² | TIMS collision cross section in N2 (ion species: [M-H+Na+HCO2H]-): 188.05 ± 0.04 Å² |
| CC(C)=CCC1C(=O)C(C(=O)CC(C)C)=C(O)C(O)(CC=C(C)C)C1=O (stereo not drawn) [Humulone] | 188.57 ± 0.35 Å² |  |
| COc1ccc(-c2cc(=O)c3c(O)c(OC)c(O)c(OC)c3o2)cc1OC [Hymenoxin] | 190.48 ± 0.09 Å² | TIMS collision cross section in N2 (ion species: [M-H+Na+HCO2H]-): 207.1 ± 0.28 Å² |
| COc1ccc(-c2oc3c(CC=C(C)C)c(O[C@@H]4O[C@H](CO)[C@@H](O)[C@H](O)[C@H]4O)cc(O)c3c(=O)c2O[C@@H]2O[C@@H](C)[C@H](O)[C@@H](O)[C@H]2O)cc1 [Icariin] |  | TIMS collision cross section in N2 (ion species: [M-H+HCO2H]-): 256.3 ± 1.1 Å² |
| CC(C)=CCC(=O)C1(O)C(O)=C(C(=O)CC(C)C)C(=O)C1CC=C(C)C (stereo not drawn) [Isohumulone] | 187.14 ± 0.21 Å² |  |
| C[C@@H]1O[C@@H](OC[C@H]2O[C@@H](Oc3cc(O)c4c(=O)cc(-c5ccc(O)cc5)oc4c3)[C@H](O)[C@@H](O)[C@@H]2O)[C@H](O)[C@H](O)[C@H]1O [Isorhoifolin] | 231.11 ± 0.1 Å² | TIMS collision cross section in N2 (ion species: [M-H+Na+HCO2H]-): 237.1 ± 0.28 Å² |
| COc1ccc([C@@H]2CC(=O)c3c(O)cc(O[C@@H]4O[C@H](CO)[C@@H](O)[C@H](O)[C@H]4O)cc3O2)cc1 [Isosakuranin] | 217.58 ± 0.11 Å² | TIMS collision cross section in N2 (ion species: [M-H+HCO2H]-): 213.68 ± 0.13 Å² |
| COc1ccc(-c2oc3cc(O)cc(O)c3c(=O)c2O)cc1 [Kaempferide] | 167.04 ± 0.26 Å² |  |
| O=c1c(O)c(-c2ccc(O)cc2)oc2cc(O)cc(O)c12 [Kaempferol] | 161.08 ± 0.12 Å² | TIMS collision cross section in N2 (ion species: [2M-H]-): 234.8 ± 0.14 Å² |
| O=C1C[C@@H](c2ccc(O)cc2)Oc2cc(O)ccc21 [Liquiritigenin] | 159.28 ± 0.075 Å² | TIMS collision cross section in N2 (ion species: [2M-H]-): 202.54 ± 0.082 Å² |
| CC(C)=CCC1=C(O)C(C(=O)CC(C)C)=C(O)C(CC=C(C)C)(CC=C(C)C)C1=O [Lupulone] | 201.76 ± 0.7 Å² |  |
| O=c1cc(-c2ccc(O)c(O[C@@H]3OC(CO)[C@@H](O)[C@@H](O)C3O)c2)oc2cc(O[C@@H]3OC(CO)[C@@H](O)[C@@H](O)C3O)cc(O)c12 (stereo partly drawn) [Luteolin-7,3'-di-O-glucoside] | 236.98 ± 0.087 Å² |  |
